# Assays:
# [1] = test system: murine fibroblast (NIH-3T3) cells; test: MTT cytotoxicity assay in murine fibroblasts; format: cell-based
# Method: Next, the medium was removed and various concentrations (25–800 µg/mL) of samples reconstituted in 3% DMSO were applied. DMSO (3%) was used as a control. The plates were incubated for 24 h. Next, 15 µL of MTT solution (5 mg/mL in phosphate buffer) was added to each well and the plates were incubated for 2 h. Medium was discarded and 100 µL of DMSO was added to each well. Absorbance was determined using a spectrophotometer with a microplate reader at 595 nm (Molecular Devices Corporation, Sunnyvale, CA, USA).
# [2] = test system: 49-day-old S. mansoni adult worms; test: In vitro experiments with adult worms of S. mansoni (mortality, motor activity); format: cell-based, Schistosoma mansoni; conditions: for Dead Worms (%) F / Motor Activity Reduction (%) Significant F / Motor Activity Reduction (%) Slight F: female worms; for Dead Worms (%) M / Motor Activity Reduction (%) Significant M / Motor Activity Reduction (%) Slight M: male worms
# Method: The Belo Horizonte (BH) strain of S. mansoni was maintained in Biomphalaria glabrata snails and Mesocricetus auratus hamsters at the Adolfo Lutz Institute (São Paulo, Brazil) according to standard procedures. Detailed methods for the infection of molluscs and hamsters, as well as for the recovery of parasites, were as described previously. Briefly, the intermediate host snails were exposed to light for approximately 3 h and cercariae of S. mansoni were subsequently harvested. […] All animals were handled in strict accordance with good animal practice as defined by the Animal Use Ethics Committee. The preparations and culture of schistosomes was performed as previously described. Briefly, hamsters were killed 49 days after infection for the recovery of adult schistosomes. Next, fresh adult worm pairs (male and female) were washed and placed in a 24-well culture plate (TPP, St. […] Adult schistosomes were maintained continuously in medium (with or without drugs) for 96 h as described below. In vitro assays in S. mansoni adults were performed with mated males and females. The worm pairs obtained from the infusion hamsters were washed twice with RPMI 1640 medium containing 200 U/mL penicillin, 200 μg/mL streptomycin and 2 μg/mL amphotericin B (Vitrocell, Campinas, Brazil). The mated parasites were then transferred into 24-well cell culture plates (TPP, St. […] Cultures of adult worms were monitored by microscopy or magnifying glass. The effect of the drug was assessed with emphasis on changes in worm motor activity and death of worms as previously described.
# [3] = test system: mouse BALB/cN macrophage (J774A.1) cell line; test: Cell viability by flow cytometry in macrophages; conditions: 24 h, 25, 100 and 400 µg/mL, vs DMEM control
# J774A.1 cells = test: Cell death mechanism, annexin-V FITC / propidium iodide staining by flow cytometry; format: cell-based, mouse; conditions: J774A.1, 24 h; piplartine 25 μg/mL, 14B 400 μg/mL
# Method: Cells were then treated with 2 µL of annexin-V FITC (Apoptosis Detection Kit; BD Biosciences, Franklin Lakes, NJ, USA) and 2 µL of propidium iodide (PI, 50 µg/mL) for 15 min in the dark at room temperature. Next, 100 µL binding buffer was added and samples were analysed by flow cytometry (BD LSFortessa^TM, Franklin Lakes, NJ, USA). A total of 20,000 events were collected per sample.
smiles,measurement,setting,value
CCCCOC(=O)/C=C/C=C/c1cc(OC)c(OC)c(OC)c1 [Compound 19A],effect on NIH-3T3 cell viability (in words),"[1]; MTT, 24 h exposure, 25 to 800 µg/mL",did not exert significant effects on mammalian cell viability at the tested concentrations
same,Emax at 800 µg/mL,"[1]; Mus musculus, NIH3T3, 24 h, decrease in cell viability at the maximum concentration tested (800 μg/mL), NIH-3T3, 24 h",< 50%
same,Dead Worms (%) F,"[2]; 25 µM, 24 h",0%
same,Motor Activity Reduction (%) Significant F,"[2]; 25 µM, 24 h",0%
same,Motor Activity Reduction (%) Slight F,"[2]; 25 µM, 24 h",0%
same,Dead Worms (%) M,"[2]; 25 µM, 24 h",0%
same,Motor Activity Reduction (%) Significant M,"[2]; 25 µM, 24 h",0%
same,Motor Activity Reduction (%) Slight M,"[2]; 25 µM, 24 h",0%
same,Dead Worms (%) F,"[2]; 50 µM, 24 h",0%
same,Motor Activity Reduction (%) Significant F,"[2]; 50 µM, 24 h",0%
same,Motor Activity Reduction (%) Slight F,"[2]; 50 µM, 24 h",0%
same,Dead Worms (%) M,"[2]; 50 µM, 24 h",0%
same,Motor Activity Reduction (%) Significant M,"[2]; 50 µM, 24 h",0%
same,Motor Activity Reduction (%) Slight M,"[2]; 50 µM, 24 h",0%
same,Dead Worms (%) F,"[2]; 50 µM, 48 h",0%
same,Motor Activity Reduction (%) Significant F,"[2]; 50 µM, 48 h",0%
same,Motor Activity Reduction (%) Slight F,"[2]; 50 µM, 48 h",0%
same,Dead Worms (%) M,"[2]; 50 µM, 48 h",0%
same,Motor Activity Reduction (%) Significant M,"[2]; 50 µM, 48 h",0%
same,Motor Activity Reduction (%) Slight M,"[2]; 50 µM, 48 h",0%
same,Dead Worms (%) F,"[2]; 50 µM, 72 h",0%
same,Motor Activity Reduction (%) Significant F,"[2]; 50 µM, 72 h",0%
same,Motor Activity Reduction (%) Slight F,"[2]; 50 µM, 72 h",0%
same,Dead Worms (%) M,"[2]; 50 µM, 72 h",0%
same,Motor Activity Reduction (%) Significant M,"[2]; 50 µM, 72 h",0%
same,Motor Activity Reduction (%) Slight M,"[2]; 50 µM, 72 h",0%
same,Dead Worms (%) F,"[2]; 50 µM, 96 h",0%
same,Motor Activity Reduction (%) Significant F,"[2]; 50 µM, 96 h",0%
same,Motor Activity Reduction (%) Slight F,"[2]; 50 µM, 96 h",0%
same,Dead Worms (%) M,"[2]; 50 µM, 96 h",0%
same,Motor Activity Reduction (%) Significant M,"[2]; 50 µM, 96 h",0%
same,Motor Activity Reduction (%) Slight M,"[2]; 50 µM, 96 h",0%
same,activity against S. mansoni adult worms (in words),"[2]; analogues 50, 25, 10 and 5 μM, piplartine 5 and 10 μM, up to 96 h",loss of biological activity against S. mansoni
same,effect on J774A.1 cell viability (in words),[3],did not reduce cell viability at the same concentrations
"OO [Compound H2O2, hydrogen peroxide, reference compound]",annexin-V FITC staining (apoptosis marker) vs DMEM negative control (in words),J774A.1 cells,significant (p < 0.05) increase in annexin-V FITC fluorescence intensity

# Reference: PMC6032158, “Structure–Activity Relationship of Piplartine and Synthetic Analogues against Schistosoma mansoni and Cytotoxicity to Mammalian Cells” (International Journal of Molecular Sciences, 2018)
